Legend:
Assay type in all cases: cell-based
[1] = tested on: methicillin-resistant Staphylococcus aureus (MRSA) isolate U949; test: Disc diffusion assay, MRSA isolate U949
Description: (§1) Monolaurin samples (MC, MW and MX) synthesized using the present invention were subjected to bio-assay evaluation. Disc diffusion assay was adopted as preliminary evaluation of the compounds as anti methicillin-resistant Staphylococcus aureus (MRSA) agent. Four types of antibiotics were used as comparison: Vancomycin (Va), Rifampicin (RD), Chloamphenicol (C) and Gentamicin (CN).

[2] = tested on: methicillin-resistant Staphylococcus aureus (MRSA) isolate SA; test: Disc diffusion assay, MRSA isolate SA
Description: as §1

[3] = tested on: methicillin-resistant Staphylococcus aureus (MRSA) isolate N34; test: Disc diffusion assay, MRSA isolate N34
Description: as §1

[4] = tested on: methicillin-resistant Staphylococcus aureus (MRSA) isolate D51; test: Disc diffusion assay, MRSA isolate D51
Description: as §1

[5] = tested on: methicillin-resistant Staphylococcus aureus (MRSA) isolate ST122; test: Disc diffusion assay, MRSA isolate ST122
Description: as §1

[6] = tested on: methicillin-resistant Staphylococcus aureus (MRSA) isolate HIS87; test: Disc diffusion assay, MRSA isolate HIS87
Description: as §1

[7] = tested on: methicillin-resistant Staphylococcus aureus (MRSA) isolate CT184; test: Disc diffusion assay, MRSA isolate CT184
Description: as §1

[8] = tested on: methicillin-resistant Staphylococcus aureus (MRSA) isolate SP521; test: Disc diffusion assay, MRSA isolate SP521
Description: as §1

[9] = C (Chloamphenicol) as comparison

Compound | Diameter of Inhibitory Zone [1, 9] [mm] | Diameter of Inhibitory Zone ([1]; CN (Gentamicin) as comparison) [mm] | Diameter of Inhibitory Zone ([1]; Rd (Rifampicin) as comparison) [mm] | Diameter of Inhibitory Zone ([1]; Va (Vancomycin) as comparison) [mm] | Diameter of Inhibitory Zone [2, 9] [mm] | Diameter of Inhibitory Zone ([2]; CN (Gentamicin) as comparison) [mm] | Diameter of Inhibitory Zone ([2]; Rd (Rifampicin) as comparison) [mm] | Diameter of Inhibitory Zone ([2]; Va (Vancomycin) as comparison) [mm] | Diameter of Inhibitory Zone [3, 9] [mm] | Diameter of Inhibitory Zone ([3]; CN (Gentamicin) as comparison) [mm] | Diameter of Inhibitory Zone ([3]; Rd (Rifampicin) as comparison) [mm] | Diameter of Inhibitory Zone ([3]; Va (Vancomycin) as comparison) [mm] | Diameter of Inhibitory Zone [4, 9] [mm] | Diameter of Inhibitory Zone ([4]; CN (Gentamicin) as comparison) [mm] | Diameter of Inhibitory Zone ([4]; Rd (Rifampicin) as comparison) [mm] | Diameter of Inhibitory Zone ([4]; Va (Vancomycin) as comparison) [mm] | Diameter of Inhibitory Zone [5, 9] [mm] | Diameter of Inhibitory Zone ([5]; CN (Gentamicin) as comparison) [mm] | Diameter of Inhibitory Zone ([5]; Rd (Rifampicin) as comparison) [mm] | Diameter of Inhibitory Zone ([5]; Va (Vancomycin) as comparison) [mm] | further results
CCCCCCCCCCCC(=O)OCC(O)CO (stereo not shown) [MC, monolaurin] | 4.73 | 1.02 | 1.02 | 7.77 | 2.00 | 0.40 | 0.40 | 2.92 | 0.89 | 0.44 | 0.44 | 2.99 | 0.87 | 0.86 | 0.11 | 2.95 | 5.50 | 1.17 | 1.17 | 8.26 | Diameter of Inhibitory Zone [6, 9]: 0.84 mm; Diameter of Inhibitory Zone ([6]; CN (Gentamicin) as comparison): 0.96 mm; Diameter of Inhibitory Zone ([6]; Rd (Rifampicin) as comparison): 0.11 mm; Diameter of Inhibitory Zone ([6]; Va (Vancomycin) as comparison): 2.79 mm; Diameter of Inhibitory Zone [7, 9]: 0.82 mm; Diameter of Inhibitory Zone ([7]; CN (Gentamicin) as comparison): 0.35 mm; Diameter of Inhibitory Zone ([7]; Rd (Rifampicin) as comparison): 0.42 mm; Diameter of Inhibitory Zone ([7]; Va (Vancomycin) as comparison): 2.79 mm; Diameter of Inhibitory Zone [8, 9]: 2.68 mm; Diameter of Inhibitory Zone ([8]; CN (Gentamicin) as comparison): 1.13 mm; Diameter of Inhibitory Zone ([8]; Rd (Rifampicin) as comparison): 1.13 mm; Diameter of Inhibitory Zone ([8]; Va (Vancomycin) as comparison): 7.64 mm
CCCCCCCCCCCC(=O)OCC(O)CO (stereo not shown) [MW, monolaurin] | 1.85 | 0.40 | 0.40 | 3.04 | 3.72 | 0.74 | 0.74 | 5.42 | 0.93 | 0.46 | 0.46 | 3.12 | 0.88 | 0.88 | 0.11 | 3.00 | 4.25 | 0.90 | 0.90 | 6.38 | Diameter of Inhibitory Zone [6, 9]: 0.85 mm; Diameter of Inhibitory Zone ([6]; CN (Gentamicin) as comparison): 0.98 mm; Diameter of Inhibitory Zone ([6]; Rd (Rifampicin) as comparison): 0.12 mm; Diameter of Inhibitory Zone ([6]; Va (Vancomycin) as comparison): 2.84 mm; Diameter of Inhibitory Zone [7, 9]: 0.82 mm; Diameter of Inhibitory Zone ([7]; CN (Gentamicin) as comparison): 0.35 mm; Diameter of Inhibitory Zone ([7]; Rd (Rifampicin) as comparison): 0.42 mm; Diameter of Inhibitory Zone ([7]; Va (Vancomycin) as comparison): 2.79 mm; Diameter of Inhibitory Zone [8, 9]: 2.14 mm; Diameter of Inhibitory Zone ([8]; CN (Gentamicin) as comparison): 0.90 mm; Diameter of Inhibitory Zone ([8]; Rd (Rifampicin) as comparison): 0.90 mm; Diameter of Inhibitory Zone ([8]; Va (Vancomycin) as comparison): 6.12 mm
